Measured values as given in paper PMC6803965, “A New Class of β–Pyrrolidino-1,2,3-Triazole Derivatives as β-Adrenergic Receptor Inhibitors: Synthesis, Pharmacological, and Docking Studies” (Molecules, 2019).
≈ marks a conversion by molar mass, not a printed value. Read-outs that look alike come from different tables or passages of the source.

Legend:
[1] = test system: HepG-2 cells; experiment: Cytotoxicity, aqueous one solution reagent; type: cell-based; settings: for IC50: Homo sapiens, HepG2, 24 h treatment, read-out: IC50 against HepG-2
Experimental: (§1) The cytotoxic study was carried out as reported previously. Briefly, IMR90, HepG-2, and A549 cells were grown in DMEM (Dulbecco’s Modified Eagle Medium) that contained 10% fetal bovine serum and 1% antibiotics. A total of 15 × 10^3 cells/well were seeded in 96-well plates and incubated under humidified conditions. Cells were treated with varying concentrations of synthesized triazoles for 24 h. After a 24 h treatment, 20 µL aqueous one solution reagent was added to each well and incubated for 3–4 h under a humidified condition. For IMR90 cells, MTT (MTT = 3-(4,5-dimethyl-2-thiazolyl)-2,5-diphenyl-2H-tetrazolium bromide) (5 mg/mL) was added and incubated for 3–4 h in the dark. After incubation, 100 µL of a 10% SDS (Sodium Dodecyl Sulfate) solution (0.01% HCl) was added to each well. The data was taken using an ELISA (enzyme-linked immunosorbent assay) reader at the absorbance of 490 nm for HepG-2 and A549 cells and 570 nm for IMR90 cells. The cell death was calculated using the following formula: Inhibition (%) = ((A − B)/A) × 100 (A—control group, B—treated group).

[2] = test system: A549 cells; experiment: Cytotoxicity, aqueous one solution reagent; type: cell-based; settings: for IC50: Homo sapiens, 24 h treatment, read-out: IC50 against A549
Experimental: as §1

[3] = test system: Salmonella paratyphi-B; experiment: Minimum inhibitory concentration (MIC); type: cell-based
Experimental: (§2) The MIC experiment was carried out according to the standard reference methods. Briefly, the required concentrations of synthesized compounds 5a–l were dissolved in DMSO (Dimethylsulfoxide) in concentrations of 500 µg/mL, 250 µg/mL, 125 µg/mL, 62.5 µg/mL, 31.25 µg/mL, 15.6 µg/mL, and […]. An inoculum of 100 µL from each well (96-well plate) was inoculated. For the positive control, ketoconazole (fungi) and streptomycin (bacteria) was used. The MIC values for the tested bacteria were identified as the lowest inhibiting concentration of compound on the agar plate in visual growth.

[4] = test system: Proteus vulgaris; experiment: Minimum inhibitory concentration (MIC); type: cell-based; settings: read-out: Minimum inhibitory concentration
Experimental: as §2

[5] = test system: Micrococcus luteus; experiment: Minimum inhibitory concentration (MIC); type: cell-based; settings: read-out: Minimum inhibitory concentration
Experimental: as §2

[6] = test system: Klebsiella pneumoniae; experiment: Minimum inhibitory concentration (MIC); type: cell-based; settings: read-out: Minimum inhibitory concentration
Experimental: as §2

[7] = test system: Staphylococcus aureus-MRSA; experiment: Minimum inhibitory concentration (MIC); type: cell-based; settings: read-out: Minimum inhibitory concentration
Experimental: as §2

[8] = test system: Salmonella typhimurium; experiment: Minimum inhibitory concentration (MIC); type: cell-based; settings: Salmonella enterica, read-out: Minimum inhibitory concentration
Experimental: as §2

[9] = test system: Staphylococcus epidermidis; experiment: Minimum inhibitory concentration (MIC); type: cell-based; settings: read-out: Minimum inhibitory concentration
Experimental: as §2

[10] = test system: Shigella flexneri; experiment: Minimum inhibitory concentration (MIC); type: cell-based
Experimental: as §2

[11] = test system: Staphylococcus aureus; experiment: Minimum inhibitory concentration (MIC); type: cell-based; settings: read-out: Minimum inhibitory concentration
Experimental: as §2

[12] = test system: Enterobacter aerogenes; experiment: Minimum inhibitory concentration (MIC); type: cell-based; settings: Klebsiella aerogenes, read-out: Minimum inhibitory concentration
Experimental: as §2

[13] = test system: tested bacteria; experiment: Antimicrobial well method, result in words; type: cell-based; settings: 1 mg/mL concentration
Experimental: (§3) Antimicrobial activity was carried out as described previously. Briefly, 20 mL of sterile Mueller Hinton agar (MHA) was poured in the petri plates and kept for solidification. After solidification, the test cultures were swabbed on the top of the media and kept for 10 min to dry. The required concentration (1 mg/well) of synthesized compounds 5a–l was added to each well and left for 30 min at RT for compound diffusion. Ketoconazole (fungi) and streptomycin (bacteria) used for positive controls. The zone of inhibition was recorded in mm and the experiment was repeated twice.

[14] = test system: Salmonella paratyphi-B; experiment: Antimicrobial well method, zone of inhibition; type: cell-based
Experimental: as §3

[15] = test system: Proteus vulgaris; experiment: Antimicrobial well method, zone of inhibition; type: cell-based
Experimental: as §3

[16] = test system: Micrococcus luteus; experiment: Antimicrobial well method, zone of inhibition; type: cell-based
Experimental: as §3

[17] = test system: Klebsiella pneumoniae; experiment: Antimicrobial well method, zone of inhibition; type: cell-based
Experimental: as §3

[18] = test system: Malassezia pachydermatis; experiment: Antimicrobial well method, zone of inhibition; type: cell-based
Experimental: as §3

[19] = test system: Candida albicans; experiment: Antimicrobial well method, zone of inhibition; type: cell-based; settings: 1 mg/well
Experimental: as §3

[20] = test system: Staphylococcus aureus-MRSA; experiment: Antimicrobial well method, zone of inhibition; type: cell-based
Experimental: as §3

[21] = test system: Salmonella typhimurium; experiment: Antimicrobial well method, zone of inhibition; type: cell-based; settings: Salmonella enterica
Experimental: as §3

[22] = test system: Staphylococcus epidermidis; experiment: Antimicrobial well method, zone of inhibition; type: cell-based
Experimental: as §3

[23] = test system: Shigella flexneri; experiment: Antimicrobial well method, zone of inhibition; type: cell-based
Experimental: as §3

[24] = test system: Staphylococcus aureus; experiment: Antimicrobial well method, zone of inhibition; type: cell-based
Experimental: as §3

[25] = test system: Enterobacter aerogenes; experiment: Antimicrobial well method, zone of inhibition; type: cell-based; settings: Klebsiella aerogenes
Experimental: as §3

[26] = test system: IMR90 cells; experiment: Cytotoxicity on normal cells, MTT; type: cell-based; settings: IMR-90, human normal IMR90 cells, 24 h treatment, read-out: IC50 against IMR90
Experimental: as §1

SMILES | IC50 [1] | cytotoxic / anticancer activity against A549 cells [2] | IC50 [2] | MIC [3] | MIC [4] | MIC [5] | MIC [6] | MIC [9] | MIC [10] | MIC [11] | antimicrobial activity against tested bacteria [13] | zone of inhibition at 1 mg/well [14] | zone of inhibition at 1 mg/well [15] | zone of inhibition at 1 mg/well [16] | zone of inhibition at 1 mg/well [17] | zone of inhibition at 1 mg/well [20] | zone of inhibition at 1 mg/well [21] | zone of inhibition at 1 mg/well [22] | zone of inhibition at 1 mg/well [23] | zone of inhibition at 1 mg/well [24] | other results
C[C@@H]([C@@H](c1ccccc1)n1cc(CO)nn1)N1CCCC1 [5a, (1R,2S)-1-(1-(1-Phenyl-2-(pyrrolidin-1-yl)propyl)-1H-1,2,3-triazol-4-yl)methanol] | 275 ± 1.52 µM | promising anticancer activity | 190 ± 1.35 µM | 250 µg/mL (≈ 873 µM) | 125 µg/mL (≈ 436 µM) | 31.2 µg/mL (≈ 109 µM) | 62.5 µg/mL (≈ 218 µM) | 250 µg/mL (≈ 873 µM) | 62.5 µg/mL (≈ 218 µM) | 500 µg/mL (≈ 1750 µM) | promising activity | 14 mm | 17 mm | 28 mm | 20 mm | 13 mm | 14 mm | 14 mm | 22 mm | 12 mm | cytotoxic activity against HepG-2 cells [1]: moderate activity; MIC ([7]; Staphylococcus aureus-MRSA): 250 µg/mL (≈ 873 µM); MIC ([8]; Salmonella typhimurium): 250 µg/mL (≈ 873 µM); MIC ([12]; Enterobacter aerogenes): 250 µg/mL (≈ 873 µM); zone of inhibition at 1 mg/well [18]: 12 mm; zone of inhibition [19]: 14 mm; zone of inhibition at 1 mg/well [25]: 14 mm; IC50 [26]: > 250 µM
C[C@@H]([C@@H](c1ccccc1)n1cc(COC(=O)c2ccc([N+](=O)[O-])cc2)nn1)N1CCCC1 [5g, (1R,2S)-(1-(1-Phenyl-2-(pyrrolidin-1-yl)propyl)-1H-1,2,3-triazol-4-yl)methyl 4-nitrobenzoate] | > 300 µM | promising anticancer activity | 72 ± 3.21 µM | 62.5 µg/mL (≈ 144 µM) | 31.2 µg/mL (≈ 71.8 µM) | 125 µg/mL (≈ 287 µM) | 31.2 µg/mL (≈ 71.8 µM) | 31.2 µg/mL (≈ 71.8 µM) | 31.2 µg/mL (≈ 71.8 µM) | 125 µg/mL (≈ 287 µM) | promising activity | 20 mm | 26 mm | 17 mm | 24 mm | 24 mm | 22 mm | 28 mm | 25 mm | 16 mm | MIC ([7]; Staphylococcus, MRSA): 31.2 µg/mL (≈ 71.8 µM); MIC ([8]; TYPHIMURIUM): 62.5 µg/mL (≈ 144 µM); MIC [12]: 62.5 µg/mL (≈ 144 µM); zone of inhibition [19]: 13 mm; zone of inhibition at 1 mg/well [25]: 22 mm; IC50 [26]: > 250 µM
COc1ccc(C(=O)OCc2cn([C@H](c3ccccc3)[C@H](C)N3CCCC3)nn2)cc1OC [5h, (1R,2S)-(1-(1-Phenyl-2-(pyrrolidin-1-yl)propyl)-1H-1,2,3-triazol-4-yl)methyl-3,4-dimethoxy-benzoate] | 73 ± 3.88 µM | promising anticancer activity | 58 ± 2.31 µM | 62.5 µg/mL (≈ 139 µM) | 62.5 µg/mL (≈ 139 µM) | 250 µg/mL (≈ 555 µM) | 62.5 µg/mL (≈ 139 µM) | 125 µg/mL (≈ 277 µM) | 125 µg/mL (≈ 277 µM) | 250 µg/mL (≈ 555 µM) | promising activity | 19 mm | 23 mm | 14 mm | 20 mm | 20 mm | 22 mm | 16 mm | 18 mm | 15 mm | MIC ([7]; Staphylococcus, MRSA): 62.5 µg/mL (≈ 139 µM); MIC ([8]; TYPHIMURIUM): 62.5 µg/mL (≈ 139 µM); MIC [12]: 125 µg/mL (≈ 277 µM); zone of inhibition at 1 mg/well [25]: 17 mm; IC50 [26]: > 250 µM
Cc1cccc(C(=O)OCc2cn([C@H](c3ccccc3)[C@H](C)N3CCCC3)nn2)c1 [5j, (1R,2S)-(1-(1-Phenyl-2-(pyrrolidin-1-yl)propyl)-1H-1,2,3-triazol-4-yl)methyl 3-methylbenzoate] | > 300 µM | promising anticancer activity | 111 ± 1.82 µM | 125 µg/mL (≈ 309 µM) | 62.5 µg/mL (≈ 155 µM) | 125 µg/mL (≈ 309 µM) | 62.5 µg/mL (≈ 155 µM) | 250 µg/mL (≈ 618 µM) | 62.5 µg/mL (≈ 155 µM) | 250 µg/mL (≈ 618 µM) | promising activity | 18 mm | 20 mm | 16 mm | 22 mm | 14 mm | 20 mm | 14 mm | 22 mm | 15 mm | MIC ([7]; Staphylococcus aureus-MRSA): 250 µg/mL (≈ 618 µM); MIC ([8]; TYPHIMURIUM): 62.5 µg/mL (≈ 155 µM); zone of inhibition at 1 mg/well [18]: 11 mm; zone of inhibition [19]: 13 mm; IC50 [26]: > 250 µM
C[C@@H]([C@@H](c1ccccc1)n1cc(COC(=O)c2ccccc2Cl)nn1)N1CCCC1 [5k, (1R,2S)-(1-(1-Phenyl-2-(pyrrolidin-1-yl)propyl)-1H-1,2,3-triazol-4-yl)methyl 2-chlorobenzoate] |  |  |  | 125 µg/mL (≈ 294 µM) | 125 µg/mL (≈ 294 µM) |  | 250 µg/mL (≈ 588 µM) |  | 125 µg/mL (≈ 294 µM) | 125 µg/mL (≈ 294 µM) | promising activity | 18 mm | 16 mm |  | 14 mm | 17 mm | 15 mm |  | 17 mm | 18 mm | MIC ([7]; Staphylococcus, MRSA): 125 µg/mL (≈ 294 µM); MIC ([8]; Salmonella typhimurium): 250 µg/mL (≈ 588 µM); MIC ([12]; Enterobacter aerogenes): 62.5 µg/mL (≈ 147 µM); melting point: 101 to 102 °C; zone of inhibition at 1 mg/well [25]: 22 mm
